The source of these data is US20220305132A1, “COMBINATION THERAPY COMPRISING AN ANTI-CD19 ANTIBODY DRUG CONJUGATE AND A PI3K INHIBITOR OR A SECONDARY AGENT” (ADC THERAPEUTICS SA, priority 2019, published 2022).

Data set [1] relates to myelodysplastic syndromes (MDS) patients. The settings on record: cited from earlier work.
In data set [2] the target is T1, CD19 (human, UniProt P15391 20-556).
T1 sequence (looked up): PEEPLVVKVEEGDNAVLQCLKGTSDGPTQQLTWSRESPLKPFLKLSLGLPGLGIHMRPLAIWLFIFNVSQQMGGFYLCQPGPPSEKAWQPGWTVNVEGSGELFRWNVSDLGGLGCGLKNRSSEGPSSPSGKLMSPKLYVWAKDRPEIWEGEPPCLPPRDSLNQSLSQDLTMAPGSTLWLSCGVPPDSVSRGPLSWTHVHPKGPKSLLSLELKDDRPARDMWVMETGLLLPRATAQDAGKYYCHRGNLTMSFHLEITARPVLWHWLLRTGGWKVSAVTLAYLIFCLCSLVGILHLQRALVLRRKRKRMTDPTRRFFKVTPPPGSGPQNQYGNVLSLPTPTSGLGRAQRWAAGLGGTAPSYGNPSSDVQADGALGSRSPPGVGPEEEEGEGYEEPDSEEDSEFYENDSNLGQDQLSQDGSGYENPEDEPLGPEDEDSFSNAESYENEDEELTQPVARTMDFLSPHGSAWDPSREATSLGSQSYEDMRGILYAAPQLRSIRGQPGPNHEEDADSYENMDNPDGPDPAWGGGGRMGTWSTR
Put plainly: cell-based or functional assay.

Where [3] appears, read: patients with a del(5q) chromosomal abnormality.

Regarding `Nc1cccc2c1CN(C1CCC(=O)NC1=O)C2=O` (racemic) [Lenalidomide, 3-(7-amino-3-oxo-1H-isoindol-2-yl)piperidine-2,6-dione], the Adverse events result in data set [1] (MDS patients) was “neutropenia and thrombocytopenia, pruritus, rash, diarrhea”. Also, the “transfusion independence or a reduction of at least 50% of pre-treatment RBC transfusion levels” value in data set [1] (non-del(5q) patients with confirmed low- and intermediate-1 risk) is 43 % of patients. In data set [1] (setting [3]), the complete cytogenetic remission is on record as 45 % of patients, the minor cytogenetic remission was 28% and the “red blood cell (RBC) transfusion independence” value is listed as 67 % of patients.

B1: ADCx19 (antibody, V domains shown)
VH: QVQLVQPGAEVVKPGASVKLSCKTSGYTFTSNWMHWVKQAPGQGLEWIGEIDPSDSYTNYNQNFQGKAKLTVDKSTSTAYMEVSSLRSDDTAVYYCARGSNPYYYAMDYWGQGTSVTVS
VL: EIVLTQSPAIMSASPGERVTMTCSASSGVNYMHWYQQKPGTSPRRWIYDTSKLASGVPARFSGSGSGTSYSLTISSMEPEDAATYYCHQRGSYTFGGGTKLEIK
For the molecule B1, the “Median IC50, MTT proliferation assay, 96 h exposure, 48 B-cell lymphoma lines” value in data set [2] turned out to be 4 pM.
